System: 648629-189-R-J1-PDC complex spheroids viability
Assay: Anticancer human tumor 648629-189-R-J1-PDC patient-derived bladder carcinoma cell line growth inhibition [CLK]
Conditions: for IC50: curve of first compound; for viability, T/C: stronger effect = lower value
Procedure, shortened: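 Multi-cell-type spheroids combined patient-derived tumor cells with HUVEC endothelial cells and human mesenchymal stem cells. Paired agents were dosed in half-log steps down from about clinical Cmax, or from 10 microM where Cmax was unknown.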

[1] = second compound 0.0316 µM, first compound 0.00949 µM
[2] = second compound 0.0316 µM, first compound 0.03 µM
[3] = second compound 0.0316 µM, first compound 0.0949 µM
[4] = second compound 0.0316 µM, first compound 0.3 µM
[5] = second compound 0.1 µM, first compound 0.00949 µM
[6] = second compound 0.1 µM, first compound 0.03 µM
[7] = second compound 0.1 µM, first compound 0.0949 µM
[8] = second compound 0.1 µM, first compound 0.3 µM
[9] = second compound 0.316 µM, first compound 0.00949 µM
[10] = second compound 0.316 µM, first compound 0.03 µM
[11] = second compound 0.316 µM, first compound 0.0949 µM
[12] = second compound 0.316 µM, first compound 0.3 µM
[13] = second compound 1 µM, first compound 0.00949 µM
[14] = second compound 1 µM, first compound 0.03 µM
[15] = second compound 1 µM, first compound 0.0949 µM
[16] = second compound 1 µM, first compound 0.3 µM
[17] = second compound 3.16 µM, first compound 0.00949 µM
[18] = second compound 3.16 µM, first compound 0.03 µM
[19] = second compound 3.16 µM, first compound 0.0949 µM
[20] = second compound 3.16 µM, first compound 0.3 µM
[21] = second compound 10 µM, first compound 0.00949 µM
[22] = second compound 10 µM, first compound 0.03 µM
[23] = second compound 10 µM, first compound 0.0949 µM
[24] = second compound 10 µM, first compound 0.3 µM
[25] = second compound 0.0316 µM, first compound 0.0316 µM
[26] = second compound 0.0316 µM, first compound 0.1 µM
[27] = second compound 0.0316 µM, first compound 0.316 µM
[28] = second compound 0.0316 µM, first compound 1 µM
[29] = second compound 0.0316 µM, first compound 3.16 µM
[30] = second compound 0.0316 µM, first compound 10 µM
[31] = second compound 0.1 µM, first compound 0.0316 µM
[32] = second compound 0.1 µM, first compound 0.1 µM
[33] = second compound 0.1 µM, first compound 0.316 µM
[34] = second compound 0.1 µM, first compound 1 µM
[35] = second compound 0.1 µM, first compound 3.16 µM
[36] = second compound 0.1 µM, first compound 10 µM
[37] = second compound 0.316 µM, first compound 0.0316 µM
[38] = second compound 0.316 µM, first compound 0.1 µM
[39] = second compound 0.316 µM, first compound 0.316 µM
[40] = second compound 0.316 µM, first compound 1 µM
[41] = second compound 0.316 µM, first compound 3.16 µM
[42] = second compound 0.316 µM, first compound 10 µM
[43] = second compound 1 µM, first compound 0.0316 µM
[44] = second compound 1 µM, first compound 0.1 µM
[45] = second compound 1 µM, first compound 0.316 µM
[46] = second compound 1 µM, first compound 1 µM
[47] = second compound 1 µM, first compound 3.16 µM
[48] = second compound 1 µM, first compound 10 µM
[49] = second compound 3.16 µM, first compound 0.0316 µM
[50] = second compound 3.16 µM, first compound 0.1 µM
[51] = second compound 3.16 µM, first compound 0.316 µM
[52] = second compound 3.16 µM, first compound 1 µM
[53] = second compound 3.16 µM, first compound 3.16 µM
[54] = second compound 3.16 µM, first compound 10 µM
[55] = second compound 10 µM, first compound 0.0316 µM
[56] = second compound 10 µM, first compound 0.1 µM
[57] = second compound 10 µM, first compound 0.316 µM
[58] = second compound 10 µM, first compound 1 µM
[59] = second compound 10 µM, first compound 3.16 µM
[60] = second compound 10 µM, first compound 10 µM
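For viability, T/C in this document: drug exposure lasted seven days before viability readout; 100% = DMSO vehicle control wells.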

Compound: CC(C)CC(NC(=O)C(Cc1ccccc1)NC(=O)c1cnccn1)B(O)O (stereo not drawn) + CN1CCN(c2cc(C(=O)Nc3cc4cc(-c5cnn(C)c5)ccc4cn3)ccn2)CC1
- IC50 (second compound 0.0316 µM): 0.00464 µM
- IC50 (second compound 0.1 µM): 0.0048 µM
- IC50 (second compound 0.316 µM): < 0.000949 µM
- IC50 (second compound 1 µM): < 0.000949 µM
- IC50 (second compound 3.16 µM): < 0.000949 µM
- IC50 (second compound 10 µM): < 0.000949 µM
- viability, T/C (second compound 0.0316 µM, first compound 0.000949 µM): 116%
- viability, T/C (second compound 0.0316 µM, first compound 0.003 µM): 79.8%
- viability, T/C [1]: 0.91%
- viability, T/C [2]: 0.37%
- viability, T/C [3]: 0.28%
- viability, T/C [4]: 0.14%
- viability, T/C (second compound 0.1 µM, first compound 0.000949 µM): 94.9%
- viability, T/C (second compound 0.1 µM, first compound 0.003 µM): 82.8%
- viability, T/C [5]: 2.63%
- viability, T/C [6]: 0.49%
- viability, T/C [7]: 0.17%
- viability, T/C [8]: 0.16%
- viability, T/C (second compound 0.316 µM, first compound 0.000949 µM): 41.5%
- viability, T/C (second compound 0.316 µM, first compound 0.003 µM): 18.5%
- viability, T/C [9]: 0.32%
- viability, T/C [10]: 0.16%
- viability, T/C [11]: 0.15%
- viability, T/C [12]: 0.14%
- viability, T/C (second compound 1 µM, first compound 0.000949 µM): 0.66%
- viability, T/C (second compound 1 µM, first compound 0.003 µM): 0.93%
- viability, T/C [13]: 0.16%
- viability, T/C [14]: 0.1%
- viability, T/C [15]: 0.17%
- viability, T/C [16]: 0.8%
- viability, T/C (second compound 3.16 µM, first compound 0.000949 µM): 0.08%
- viability, T/C (second compound 3.16 µM, first compound 0.003 µM): 2.07%
- viability, T/C [17]: 0.1%
- viability, T/C [18]: 0.08%
- viability, T/C [19]: 1.36%
- viability, T/C [20]: 1.67%
- viability, T/C (second compound 10 µM, first compound 0.000949 µM): 0.06%
- viability, T/C (second compound 10 µM, first compound 0.003 µM): 1.03%
- viability, T/C [21]: 0.12%
- viability, T/C [22]: 0.11%
- viability, T/C [23]: 2.27%
- viability, T/C [24]: 1.33%

Compound: CC1(C)CCC(CN2CCN(c3ccc(C(=O)NS(=O)(=O)c4ccc(NCC5CCOCC5)c([N+](=O)[O-])c4)c(Oc4cnc5[nH]ccc5c4)c3)CC2)=C(c2ccc(Cl)cc2)C1 + CN1CCN(c2cc(C(=O)Nc3cc4cc(-c5cnn(C)c5)ccc4cn3)ccn2)CC1
- IC50 (second compound 0.0316 µM): > 10 µM
- IC50 (second compound 0.1 µM): > 10 µM
- IC50 (second compound 0.316 µM): < 0.0316 µM
- IC50 (second compound 1 µM): < 0.0316 µM
- IC50 (second compound 3.16 µM): < 0.0316 µM
- IC50 (second compound 10 µM): < 0.0316 µM
- viability, T/C [25]: 114%
- viability, T/C [26]: 112%
- viability, T/C [27]: 110%
- viability, T/C [28]: 97.4%
- viability, T/C [29]: 86.2%
- viability, T/C [30]: 66.6%
- viability, T/C [31]: 112%
- viability, T/C [32]: 116%
- viability, T/C [33]: 97.4%
- viability, T/C [34]: 107%
- viability, T/C [35]: 91.8%
- viability, T/C [36]: 56.1%
- viability, T/C [37]: 37%
- viability, T/C [38]: 52%
- viability, T/C [39]: 41.4%
- viability, T/C [40]: 47.8%
- viability, T/C [41]: 35.7%
- viability, T/C [42]: 24.2%
- viability, T/C [43]: 0.21%
- viability, T/C [44]: 0.41%
- viability, T/C [45]: 0.38%
- viability, T/C [46]: 0.27%
- viability, T/C [47]: 0.36%
- viability, T/C [48]: 1.01%
- viability, T/C [49]: 0.1%
- viability, T/C [50]: 0.35%
- viability, T/C [51]: 0.14%
- viability, T/C [52]: 0.13%
- viability, T/C [53]: 0.12%
- viability, T/C [54]: 0.7%
- viability, T/C [55]: 0.13%
- viability, T/C [56]: 0.17%
- viability, T/C [57]: 0.16%
- viability, T/C [58]: 0.54%
- viability, T/C [59]: 0.17%
- viability, T/C [60]: 0.16%

Compound: CC1COCCN1c1cc(C2(S(C)(=N)=O)CC2)nc(-c2ccnc3[nH]ccc23)n1 (stereo not drawn) + CN1CCN(c2cc(C(=O)Nc3cc4cc(-c5cnn(C)c5)ccc4cn3)ccn2)CC1
- IC50 (second compound 0.0316 µM): 4.57 µM
- IC50 (second compound 0.1 µM): 3.95 µM
- IC50 (second compound 0.316 µM): < 0.0316 µM
- IC50 (second compound 1 µM): < 0.0316 µM
- IC50 (second compound 3.16 µM): < 0.0316 µM
- IC50 (second compound 10 µM): < 0.0316 µM
- viability, T/C [25]: 115%
- viability, T/C [26]: 116%
- viability, T/C [27]: 103%
- viability, T/C [28]: 97.1%
- viability, T/C [29]: 59.5%
- viability, T/C [30]: 27.5%
- viability, T/C [31]: 109%
- viability, T/C [32]: 95.4%
- viability, T/C [33]: 96.8%
- viability, T/C [34]: 83%
- viability, T/C [35]: 54.3%
- viability, T/C [36]: 26.5%
- viability, T/C [37]: 33.3%
- viability, T/C [38]: 45.9%
- viability, T/C [39]: 39.8%
- viability, T/C [40]: 34.8%
- viability, T/C [41]: 19.1%
- viability, T/C [42]: 9.89%
- viability, T/C [43]: 0.39%
- viability, T/C [44]: 0.82%
- viability, T/C [45]: 0.84%
- viability, T/C [46]: 0.41%
- viability, T/C [47]: 0.31%
- viability, T/C [48]: 0.11%
- viability, T/C [49]: 1.1%
- viability, T/C [50]: 0.7%
- viability, T/C [51]: 0.19%
- viability, T/C [52]: 0.15%
- viability, T/C [53]: 0.15%
- viability, T/C [54]: 1.68%
- viability, T/C [55]: 0.16%
- viability, T/C [56]: 0.16%
- viability, T/C [57]: 0.22%
- viability, T/C [58]: 0.22%
- viability, T/C [59]: 0.22%
- viability, T/C [60]: 0.19%

Compound: NC(=O)C(=Cn1cnc(-c2cc(C(F)(F)F)cc(C(F)(F)F)c2)n1)c1cncnc1 + CN1CCN(c2cc(C(=O)Nc3cc4cc(-c5cnn(C)c5)ccc4cn3)ccn2)CC1
- IC50 (second compound 0.0316 µM): 0.0544 µM
- IC50 (second compound 0.1 µM): 0.0533 µM
- IC50 (second compound 0.316 µM): < 0.00949 µM
- IC50 (second compound 1 µM): < 0.00949 µM
- IC50 (second compound 3.16 µM): < 0.00949 µM
- IC50 (second compound 10 µM): < 0.00949 µM
- viability, T/C [1]: 113%
- viability, T/C [2]: 88.2%
- viability, T/C [3]: 14.3%
- viability, T/C [4]: 2.66%
- viability, T/C (second compound 0.0316 µM, first compound 0.949 µM): 1.8%
- viability, T/C (second compound 0.0316 µM, first compound 3 µM): 1.61%
- viability, T/C [5]: 93.7%
- viability, T/C [6]: 87.7%
- viability, T/C [7]: 12.2%
- viability, T/C [8]: 2.12%
- viability, T/C (second compound 0.1 µM, first compound 0.949 µM): 0.68%
- viability, T/C (second compound 0.1 µM, first compound 3 µM): 0.92%
- viability, T/C [9]: 14.6%
- viability, T/C [10]: 11.7%
- viability, T/C [11]: 3%
- viability, T/C [12]: 0.3%
- viability, T/C (second compound 0.316 µM, first compound 0.949 µM): 0.08%
- viability, T/C (second compound 0.316 µM, first compound 3 µM): 1.52%
- viability, T/C [13]: 0.1%
- viability, T/C [14]: 0.12%
- viability, T/C [15]: 0.12%
- viability, T/C [16]: 0.07%
- viability, T/C (second compound 1 µM, first compound 0.949 µM): 0.06%
- viability, T/C (second compound 1 µM, first compound 3 µM): 0.63%
- viability, T/C [17]: 0.07%
- viability, T/C [18]: 0.1%
- viability, T/C [19]: 0.12%
- viability, T/C [20]: 0.12%
- viability, T/C (second compound 3.16 µM, first compound 0.949 µM): 0.79%
- viability, T/C (second compound 3.16 µM, first compound 3 µM): 0.75%
- viability, T/C [21]: 0.05%
- viability, T/C [22]: 0.08%
- viability, T/C [23]: 0.17%
- viability, T/C [24]: 0.2%
- viability, T/C (second compound 10 µM, first compound 0.949 µM): 1.48%
- viability, T/C (second compound 10 µM, first compound 3 µM): 0.19%

— PubChem BioAssay AID2060602 (Molecular Pharmacology Branch, DTP, NCI, 2025)
